One series addresses T1, PARP1 (Homo sapiens, UniProt P09874).
T1 construct: purchased TREVIGEN
The series is described as follows: PARP-1 enzymatic experiment (HT Universal Chemiluminescent PARP Assay kit). The class given is biochemical. The note with it: chemiluminescence. The procedure:
Experimental Example 1: PARP-1 Enzymatic Experiment
Experimental materials: test compounds; HT Universal Chemiluminescent PARP Assay kit (purchased from TREVIGEN); PBS (purchased from Wisent); Triton X-100 (purchased from Macklin); Envision multi-marker analyzer (PerkinElmer).
(I) Preparation of Reagents:
• 1. Washing solution: Triton X-100 was added to 1-fold PBS, and the final concentration of Triton X-100 was 0.1%. • 2. 1-fold PARP buffer: the 20-fold PARP buffer in the kit was subjected to 20-fold dilution with water to prepare a 1-fold PARP buffer. This buffer was used to prepare the compound, enzyme solution and substrate solution. • 3. 1-fold Strep-Diluent solution: the 10-fold Strep-diluent in the kit was subjected to 10-fold dilution with water to prepare a 1-fold Strep-diluent solution.
(II) Preparation of Test Compounds:
Test compounds were serially 5-fold diluted to the 8th concentration with a multichannel pipette, i.e. from 200 μM to 2.56 nM, with the DMSO concentration being 100%. 2 μL of each of the inhibitors at various concentration gradients was added to a compound intermediate plate, and 38 μL of the 1-fold PARP buffer was then added; the two were mixed well for use, and the DMSO concentration was 5%.
(III) Experimental Method:
• a) The 1-fold PARP buffer was added to a test plate at 50 μL per well and incubated at 25° C. for 30 min. • b) After the incubation was completed, the liquid in the test plate was discarded, and each of the compounds at various concentration gradients was pipetted from the compound intermediate plate and added into the test plate at 10 μL per well. A duplicate-well experiment was performed. • c) The test plate was added with the enzyme solution (0.5 IU) at 15 μL per well. The compound and enzyme were incubated together at 25° C. for 10 min. • d) After the incubation was completed, 25 μL of the 1-fold PARP Cocktail (comprising 2.5 μL of 10-fold PARP Cocktail, 2.5 μL of 10-fold Activated DNA and 20 μL of 1-fold PARP buffer) was added to each well of the test plate. The test plate was incubated at 25° C. for 1 h. The final concentration of the compound was 2 μM to 0.0256 nM, and the DMSO concentration was […]. • e) After the incubation was completed, the test plate was washed twice with 200 μL of washing solution per well and then washed twice with 200 μL of PBS per well. • f) Strep-HRP in the kit was subjected to 500-fold dilution with the 1-fold Strep-Diluent solution, added to the test plate at 50 μL per well, and then incubated at 25° C. for 1 h. • g) After the incubation was completed, the test plate was washed twice with 200 μL of washing solution per well and then washed twice with 200 μL of PBS per well.
PeroxyGlow A and B in the kit were mixed at ratio of 1:1, and the mixed solution was added to the test plate at 100 μL per well. Chemiluminescence was immediately read using a PerkinElmer Envision multi-marker analyzer with an integration time of 0.5 s.
Data analysis: the original data was converted to inhibition using the equation (sample−Min)/(Max−Min)×[…], and the IC50 value was then curve filled using four parameters (obtained from the “log(inhibitor) vs. response-variable slope” model in GraphPad Prism).

In series [1] the test system is BRCA1-mutated MDA-MB-436 cells. The experiment in a line: Anti-proliferation experiment on MDA-MB-436 CTG cells. The note with it: 7 days incubation, CellTiter-Glo. The class given is cell-based, human. The procedure: Experimental Example 2: Anti-Proliferation Experiment on MDA-MB-436 CTG Cells
Experimental materials: test compounds; RPMI-1640 medium; fetal bovine serum; penicillin/streptomycin antibiotic; MDA-MB-436 cell line; Envision multi-marker analyzer (PerkinElmer).
MDA-MB-436 cells were seeded in a white 96-well plate by adding 80 μL of cell suspension (containing 3000 MDA-MB-436 cells) to each well. The cell plate was incubated in a CO2 incubator overnight.
(§1) Test compounds were serially 5-fold diluted to the 8th concentration with a multichannel pipette, i.e. from 2 mM to 26 nM, and a duplicate well experiment was performed. 78 μL of medium was added to a intermediate plate, 2 μL of each of serially diluted compounds was transferred to corresponding wells of the intermediate plate, and after mixing, the mixture was transferred to the cell plate at 20 μL per well. The cell plate was incubated in a CO2 incubator for 7 days. Another cell plate was provided for reading signal values on the day of compound addition and these signal values were used as Max values in data analysis. Promega CellTiter-Glo was added to this cell plate at 25 μL per well and the luminescence signals were stabilized by incubation for 10 min at room temperature. Readings were taken using a PerkinElmer Envision multi-marker analyzer.
(§2) Promega CellTiter-Glo was added to the cell plate at 25 μL per well and the luminescence signals were stabilized by incubation for 10 min at room temperature. Readings were taken using a PerkinElmer Envision multi-marker analyzer.
2. Data analysis: the original data was converted to inhibition using the equation (sample−Min)/(Max−Min)×100%, and the IC50 value was then curve fitted using four parameters (obtained from the “log(inhibitor) vs. response-variable slope” model in GraphPad Prism). Table 2 provides the inhibitory activity of the compounds disclosed herein against MDA-MB-436 cell proliferation.
On the technique in general: Cellular ATP, detected with luciferase, serves as a proxy for viable cell number.

The nature of series [2]: Single-dose pharmacokinetic study in mice. Type of series: in vivo. The note with it: male C57BL/6 mice, IV: 1 mg/kg PO: 5 mg/kg. An excerpt: Experimental Example 8: Single-Dose Pharmacokinetic Study in Mice
Experimental objective: to evaluate the pharmacokinetic behavior by using male C57BL/6 mice as test animals and determining the drug concentrations of the compounds in the plasma, liver and cerebrospinal fluid after single-dose administration.
Experimental method: healthy adult male C57BL/6 mice were selected for intragastric administration. A candidate compound was mixed with an appropriate amount of 10% DMSO/90% (20% hydroxypropyl-β-cyclodextrin), vortexed and sonicated to prepare a 0.5 mg/mL clear solution for later use. After the mice were administered intravenously at 1 mg/kg and orally at 5 mg/kg, whole blood was collected at certain time points, and plasma was separated, and liver and cerebrospinal fluid were collected. After pretreatment of the samples, the drug concentration was measured by LC-MS/MS, and pharmacokinetic parameters were calculated using Phoenix WinNonlin software.

Series [3] deals with BRCA-wild type MDA-MB-231 cells. The series is described as follows: Anti-proliferation experiment on MDA-MB-231 CTG cells. Type of series: cell-based. Particulars: Homo sapiens, MDA-MB-231, 72 h; 3 days incubation, CellTiter-Glo. How it is done: Experimental Example 3: Anti-Proliferation Experiment on MDA-MB-231 CTG Cells
Experimental materials: test compounds; R DMEM medium; fetal bovine serum; penicillin/streptomycin antibiotic; MDA-MB-231 cell line; Envision multi-label analyzer.
MDA-MB-231 cells were seeded in a white 96-well plate by adding 80 μL of cell suspension (containing 5000 MDA-MB-231 cells) to each well. The cell plate was incubated in a CO2 incubator overnight.
as §1, with “Eight concentration points were set for each compound, test compounds” for “Test compounds”, “serially 3-fold” for “serially 5-fold”, “to 920” for “to 26”, “for 3” for “for 7”
as §2
Data analysis: the original data was converted to inhibition using the equation (sample−Min)/(Max−Min)×100%, and the IC50 value was then curve fitted using four parameters (obtained from the “log(inhibitor) vs. response-variable slope” model in GraphPad Prism). Table 1 provides the inhibitory activity of the compounds disclosed herein against MDA-MB-231 cell proliferation.

The mark [4] stands for this setting: Homo sapiens, MDA-MB-436, 168 h.

Each structure is given as a SMILES string.

T1 sequence (P09874 whole entry): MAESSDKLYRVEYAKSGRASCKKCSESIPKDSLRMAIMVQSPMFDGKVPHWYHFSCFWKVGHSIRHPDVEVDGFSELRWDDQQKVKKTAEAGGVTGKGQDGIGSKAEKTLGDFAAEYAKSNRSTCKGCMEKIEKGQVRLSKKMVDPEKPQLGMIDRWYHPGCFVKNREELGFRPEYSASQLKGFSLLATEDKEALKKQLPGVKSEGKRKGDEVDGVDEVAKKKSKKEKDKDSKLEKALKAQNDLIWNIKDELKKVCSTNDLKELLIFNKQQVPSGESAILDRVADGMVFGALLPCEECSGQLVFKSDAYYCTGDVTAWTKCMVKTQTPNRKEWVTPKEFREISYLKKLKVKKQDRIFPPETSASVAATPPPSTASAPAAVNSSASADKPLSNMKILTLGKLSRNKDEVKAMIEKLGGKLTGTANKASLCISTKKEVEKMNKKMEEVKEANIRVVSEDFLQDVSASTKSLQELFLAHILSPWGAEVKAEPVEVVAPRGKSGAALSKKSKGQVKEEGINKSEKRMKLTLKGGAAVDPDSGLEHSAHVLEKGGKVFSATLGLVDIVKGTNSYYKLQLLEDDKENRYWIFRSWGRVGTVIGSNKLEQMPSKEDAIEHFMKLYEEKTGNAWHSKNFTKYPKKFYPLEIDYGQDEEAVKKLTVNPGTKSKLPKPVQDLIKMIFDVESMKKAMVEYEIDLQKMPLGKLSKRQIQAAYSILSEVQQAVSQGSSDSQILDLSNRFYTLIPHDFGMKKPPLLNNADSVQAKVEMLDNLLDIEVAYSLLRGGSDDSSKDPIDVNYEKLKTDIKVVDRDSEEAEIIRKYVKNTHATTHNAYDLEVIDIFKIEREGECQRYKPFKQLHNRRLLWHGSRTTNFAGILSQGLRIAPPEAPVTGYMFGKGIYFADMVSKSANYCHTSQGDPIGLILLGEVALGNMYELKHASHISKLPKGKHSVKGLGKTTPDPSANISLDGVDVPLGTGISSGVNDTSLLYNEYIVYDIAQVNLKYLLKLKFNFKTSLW

Turning to `O=C1NOCc2c(-c3ccc(C4CCCN4)nc3)[nH]c3cccc1c23` (centres unmarked) [Example 16_B], the IC50 (in general, the point on the concentration scale where inhibition reaches its midpoint) against PARP1 turned out to be 2.8 nM; in series [1] (setting [4]), 44.6 nM.
For the compound `O=C1NOCc2c(-c3ccc(C4CCCN4)c(F)c3)[nH]c3cc(F)cc1c23` (single isomer, unassigned) [Example 28_A], the IC50 on PARP1 was 2.9 nM; in series [1] (setting [4]) it was 73 nM.
`CC1(c2ccc(-c3[nH]c4cc(F)cc5c4c3CONC5=O)cc2F)CCCN1` (single isomer, unassigned) [Example 26_B]: the IC50 against PARP1 amounted to 3.6 nM; in series [1] it was 29.3 nM.
In series [1] (setting [4]), `O=C1NOCc2c(-c3ccc(C4=CNCC4)c(F)c3)[nH]c3cccc1c23` [Example 18] showed an IC50 of 134 nM.
`CNCc1ccc(-c2[nH]c3cc(F)cc4c3c2CCNC4=O)cc1` [Rucaparib, reference compound] gave a Maximum concentration in series [2] of 24.8 nM. In addition, in series [2] (mouse, plasma), the bioavailability (usually dose-corrected exposure relative to a reference, in per cent) worked out at 14.6% and the clearance amounted to 99.9 mL/min/kg. In addition, the Vd in series [2] (mouse, plasma, read-out: Apparent volume of distribution) was found to be 13.1 L/kg.
As for `CC1(c2ccc(-c3[nH]c4cc(F)cc5c4c3CONC5=O)cc2)CCCN1` (centres unmarked) [Example 25_B], the IC50 on PARP1 came out at 2.8 nM; in series [1] it was 20.7 nM.
For `O=C1NOCc2c(-c3ccc(C4CCCN4)c(F)c3)[nH]c3cc(F)cc1c23` (single isomer, unassigned) [Example 28_B], in that order: 3.4 nM and 50 nM.
`O=C1NOCc2c(-c3ccc(C4CCCN4CCO)c(F)c3)[nH]c3cccc1c23` (centres unmarked) [Example 20_B]: the IC50 against PARP1 turned out to be 3.8 nM; in series [1] (setting [4]), 61.6 nM.
Regarding `O=C1NOCc2c(-c3ccc(C4CCCNC4)cc3F)[nH]c3cc(F)cc1c23` (racemic) [Example 10], the IC50 in series [1] (setting [4]) is 27 nM.
Regarding `O=C1NOCc2c(-c3ccc(C4CCCN4)cc3F)[nH]c3cc(F)cc1c23` (single isomer, unassigned) [Example 22_A], the IC50 against PARP1 amounted to 4.9 nM; in series [1], 125 nM.
Take `O=C1NOCc2c(-c3ccc(C4(F)CCCNC4)c(F)c3)[nH]c3cccc1c23` (centres unmarked) [Example 19_B]: the IC50 at PARP1 was 3.5 nM; in series [1] (setting [4]), 24 nM.
As to `O=C1NOCc2c(-c3ccc(C4CCCN4)cc3)[nH]c3cc(F)cc1c23` (single isomer, unassigned) [Example 24_B], the IC50 was 2.5 nM at PARP1 and 4.4 nM in series [1].
As for `[2H]C1([2H])ONC(=O)c2cccc3[nH]c(-c4ccc(C5(C)CCCN5)c(F)c4)c1c23` (centres unmarked) [Example 23_A], the results for the IC50 (against PARP1; in series [1] (setting [4])) were 3.7 nM and 30.9 nM, respectively.
For `[2H]C1(c2ccc(-c3[nH]c4cccc5c4c3CONC5=O)cc2F)CCCN1` (centres unmarked) [Example 15_B], in that order: 7.1 nM and 89.6 nM.
For `O=C1NOCc2c(-c3ccc(C4CCCN4)cc3F)[nH]c3cc(F)cc1c23` (single isomer, unassigned) [Example 22_B], the concentration for half-maximal inhibition (IC50) was 4.2 nM against PARP1, 61.6 nM in series [1] and over 10000 nM in series [3].
Consider `[2H]C1([2H])ONC(=O)c2cccc3[nH]c(-c4ccc(C5CCCN5)c(F)c4)c1c23` (centres unmarked) [Example 21_B], for which the IC50 against PARP1 was determined as 5.6 nM; in series [1] (setting [4]) it was 69.8 nM.
In the same order, the values of `[2H]C1(c2ccc(-c3[nH]c4cccc5c4c3CONC5=O)cc2)CCCN1` (centres unmarked) [Example 8_A] are 2.7 nM and 20.8 nM.
